Data: patent US20080305102A1, “Therapeutic Agent for Cancer Comprising Substance Capable of Inhibiting Expression or Function of Synoviolin as Active Ingredient and Screening Method for the Therapeutic Agent for Cancer” (priority 2005, published 2008)
pIC50: −log10 of the molar value.

Legend:
RKO cells = test: cytotoxicity / cell survival rate in RKO cells (WST-8); format: cell-based, human; conditions: cultured 24-72 h with compound, FIG. 18
Method: RKO cells (a human colon carcinoma cell line; ATCC: CRL-2577) were seeded in Eagle's Minimum Essential Medium containing 10% fetal bovine serum in a 96-well microtiter plate (Falcon; non-coated) at 1,000 cells/100 μL/well, and cultured for 24 h. Compounds X and Y were dissolved in Eagle's Minimum Essential Medium containing 10% fetal bovine serum, and 10 μL amounts were added to wells. The cells were then cultured for 24-72 h.
After culture, WST-8 (2-(2-methoxy-4-nitrophenyl)-3-(4-nitrophenyl)-5-(2,4-disulfophenyl)-2H-tetrazolium, monosodium salt) was added to each well. After 2-4 h, absorbances at 450 nm were measured (reference wavelength: […]) and cell survival rates were calculated (FIG. 18).
The calculation method was based on the following formula: […]

[1] = system: T1, synoviolin (MBP-Syno ΔTM-His), substrate GST-p53 (Homo sapiens); test: in vitro ubiquitination reaction of GST-p53 by MBP-Syno ΔTM-His (Western blot, anti-p53 FL393); format: biochemical; conditions: 75, 150, 300 or 600 μM compound; FIG. 17B
T1 construct: GST-SynoΔTM 236-617:pGEX-5-1/S ΔTM; His tag (C); made in house; host or cells: E. coli
T1 sequence (Q86TM6 236-617 E545G): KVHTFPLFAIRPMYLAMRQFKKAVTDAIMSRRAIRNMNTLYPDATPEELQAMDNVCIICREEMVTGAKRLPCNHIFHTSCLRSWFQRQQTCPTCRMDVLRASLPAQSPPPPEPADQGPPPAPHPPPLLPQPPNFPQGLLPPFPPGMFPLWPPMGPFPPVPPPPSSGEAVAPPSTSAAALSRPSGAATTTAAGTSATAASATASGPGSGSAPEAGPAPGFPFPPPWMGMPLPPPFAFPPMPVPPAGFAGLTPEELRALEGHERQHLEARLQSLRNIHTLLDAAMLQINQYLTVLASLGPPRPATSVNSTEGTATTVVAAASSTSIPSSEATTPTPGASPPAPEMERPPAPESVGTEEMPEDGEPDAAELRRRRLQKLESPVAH
Method: E. coli (BL21) hosting pGEX/p53 was cultured in 500 mL of LB medium. After induction with IPTG (1 mM at 30° C. for 6 h), an extract was prepared from the culture solution, using buffer containing 0.5% NP-40. From the E. coli extract, GST-p53 was purified using a GSH-Sepharose resin in the presence of 0.1% NP-40. […] After the reaction, proteins were separated by 7.5% SDS-PAGE, and transferred onto a PVDF membrane, prior to detection of the p53 protein on the membrane using anti-p53 antibodies (FL393 or DO-1). Reaction and detection were performed with variations in the amount of GST-p53 added.
In the presence of GST-p53, varying concentrations (75 μM, 150 μM, 300 μM, or 600 μM) of compounds X and Y were added to the in vitro ubiquitination reaction system using MBP-Syno ΔTM-His. After reaction, proteins were separated by 7.5% SDS-PAGE, transferred onto a PVDF membrane, and then detected using the anti-p53 antibody FL393 (Santa Cruz Biotechnology).

[2] = system: rheumatoid arthritis synovial cells (RASCs); test: suppression of RASC proliferation (MTT); format: cell-based; conditions: Synovial cell, after 72 h of culture, FIGS. 23 and 24, read-out: IC50, RASC cell survival
Method: The low molecular weight compounds termed No. 32 (Compound X) and No. 38 (Compound Y) were used as specimens. HFLS-RA medium (Cell Applications Inc.; Code CA40405) was used for RASC. RASCs were seeded in a 96-well microtiter plate at 1,000 cells/well, and cultured for 24 h in DMEM containing 10% fetal bovine serum (Kohjin Bio). Then, twofold serial dilutions of the specimens, beginning from a final concentration of 50 μM, were added to the cells. After 1, 24, and 48 h, 3-(4,5-dimethylthiazol-2-yl)-2,5-diphenyltetrazoliumbromide (MTT) was added to a final concentration of 0.5 mg/mL. After 2 h, the medium was aspirated, and the remaining formazan was dissolved with 50 μL of dimethyl sulfoxide. Then, absorbances at […] were measured. The absorbances of the group treated with the specimens were used to calculate cell survival rates, with 0% representing the absorbance of the group without cells or specimen, and 100% representing the absorbance of the group without specimen.

p53 protein = p53 protein expression level in RKO cells (Western blotting); format: cell-based, human; conditions: 5, 10 or 20 μM, 24 h, FIG. 19
Method: Fractions of homogenized cells were prepared from various cells using a cell homogenizing solution (50 mM Tris-HCl [pH 8.0], 150 mM NaCl, 1% NP40, 1 mM PMSF, 0.1% sodium dodecyl sulfate (SDS), 2 μg/mL leupeptin, 2 μg/mL aprotinin, and 2 μg/mL pepstatin). Then, fractions of homogenized cells were separated by SDS-PAGE. After SDS-PAGE, the cell-derived proteins were transferred onto a nitrocellulose (NC) membrane by an electroblotting method. This NC membrane was blocked with Tris buffered saline (TBS) with 5% skim milk at room temperature for 1 h, and then immunoreacted with anti-p53 antibody C-terminal aa; 195-393 or FL393, both of which were diluted in TBS with 5% skim milk, at room temperature for 1 h. The NC membrane after reaction was washed with 0.1% Tween 20/TBS, and then immunoreacted with horse radish peroxidase (HRP)-labeled anti-rabbit IgG antibody as secondary antibody, at room temperature for 1 h. The membrane was washed with 0.1% Tween 20/TBS, and HRP activity was sought to detect the target antigen. An ECL kit (Amersham) was used to detect HRP activity […]).
RKO cells were treated with compound Y, and changes in p53 protein expression level were examined by Western blotting. Specifically, RKO cells were seeded in 10 cm plates at 5.0×10^5 cells/plate, and cultured for 24 h. […]

synoviolin and p53 mRNA = test: mRNA levels of synoviolin and p53 in RASCs under synoviolin RNAi (TaqMan); format: cell-based; conditions: 25 nM siRNA, cultured 4 d, 18S rRNA as control, FIG. 14
Method: RASCs were seeded on a 10 cm dish at 30,000 cells/dish, and were transfected with 25 nM of siRNA (No. 589) according to a routine method. The cells were then cultured for 4 d. During this period, cells were collected overtime to obtain mRNA. Random primers were used, with 1 μg of mRNA as a template, to perform reverse transcription reactions, and cDNAs were obtained. The obtained cDNAs were quantified using the ABI TaqMan Gene expression assay (GEX). The mRNA levels were calculated using 18S rRNA as control.
The GEX reagent target assay no. (Assay ID) is Hs00381211_m1 for synoviolin and Hs00153340_m1 for p53.

RA synovial cells = test: cell cycle of RA synovial cells after synoviolin siRNA (flow cytometer); format: cell-based; conditions: 25 nM siRNA, FIG. 7
Method: RA synovial cells were seeded on a 10 cm dish at 9.0×10^4 cells/dish, and were transfected with synoviolin siRNA (final concentration 25 nM). Then, the cell cycle was monitored by flow cytometer.

[3] = system: phosphorylation of Ser15 of p53 (ATM and ATR); test: p53 Ser15 phosphorylation in RKO cells treated with synoviolin siRNA, with or without caffeine (Western blotting); format: cell-based, human; conditions: caffeine 10 mM, both 12 h and 24 h after the addition, FIG. 5
Method: RKO cells (human colon cancer cells), which had been confirmed to express wild-type p53, were seeded on a 60 mm plate at 1.0×10^5 cells/plate/2 mL), and were transfected with siRNA oligonucleotides against GFP and synoviolin, using Oligofectamine. After 72 h, caffeine (10 mM), an inhibitor of ATM (ataxia-telangiectasia mutated) and ATR (an ATM and Rad3-related), which are important in the phosphorylation of […], was added. Then, Western blotting was performed using Phospho-p53 ([…]), an antibody to the phosphorylated […]-p53.

Molecule | cell proliferation / cell survival rate of RKO cells (RKO cells) | inhibition of the GST-p53 ubiquitination reaction [1] | pIC50 [2] | further results
COc1ccc(/C=N/Nc2nc(Nc3ccc([N+](=O)[O-])cc3)nc(N3CCN(C)CC3)n2)cc1OC [compound X] | cell proliferation was suppressed | inhibited the GST-p53 ubiquitination reaction in a concentration-dependent manner | 4.70 | –
CN(C)c1nc(N/N=C/c2cc([N+](=O)[O-])ccc2O)nc(Nc2ccc(F)cc2)n1 [compound Y] | cell proliferation was suppressed | inhibited the GST-p53 ubiquitination reaction in a concentration-dependent manner | ~5.22 | p53 protein expression level (p53 protein): increased
h589: double-stranded RNA in which sense strand SEQ ID NO: 18 and antisense strand SEQ ID NO: 19 are annealed; synoviolin siRNA (sense GGUGUUCUUUGGGCAACUGTT; antisense CAGUUGCCCAAAGAACACCTT; chemistry not given here) | – | – | – | level of p53 mRNA (synoviolin and p53 mRNA): unchanged; level of synoviolin mRNA (synoviolin and p53 mRNA): decreased; cell cycle (RA synovial cells): delay in the cell cycle at the G0/G1 phase
Cn1c(=O)c2c(ncn2C)n(C)c1=O [caffeine] | – | – | – | inhibition of the siRNA-enhanced phosphorylation of p53 Ser15 [3]: completely inhibited
